According to patent US20250345446A1 (Draupnir Bio ApS, priority 2022, published 2025):
Where two headings read alike, the source gives them in different places. Each block holds one molecule with its values, some of them ahead of it. Residues, ends and D or L forms follow the SMILES beside them. *: point of attachment. Biotin = O=C1N[C@H]2[C@H](CS[C@H]2CCCCC(=O)*)N1

Experiments:
HEK293/sortilin cells [1] = test: Lysosomal sorting and degradation of NA650 (microscopy, blotted lysates, leupeptin); assay type: cell-based; settings: NA650 100 nM
Procedure: Cellular uptake of target NA650 was analyzed with fluorescence microscopy. For this assay, coverslips in 4 well plates were coated with poly-L lysine prior to seeding of HEK293/sortilin cells (25K cells/coverslip) in culture media (as described in Example 3)) and incubated overnight in cell incubator (37° C., humidified, 5% CO2). The culture media was replaced with assay media (as described in Example 3) containing NA650 (Invitrogen) (500 nM) (Thermo Fischer), a compound according to SEQ ID NO.: 147 (2 μM) and AF38469 (100 μM, MedChemExpress). The cells were incubated in a cell incubator for 4 hours before washing in dPBS (Bionordika) followed by fixation with dPBS+4% PFA (Sigma Aldrich) for 15 minutes. […] The fluorescent signal was analyzed using a laser scanning confocal microscope (LSM-800). […]
Culture medium was replaced with assay medium (DMEM (Lonza), 10% fetal bovine serum (Sigma Aldrich), 1% penicillin-streptomycin (Sigma Aldrich), 1% GlutaMAX (Gibco)) with or without NA650 (Invitrogen) (100 nM) (Thermo Fischer), peptidic bifunctional compound (300 nM) and leupeptin (80 μM) (Sigma Aldrich). […] Proteins were blotted onto a nitrocellulose membrane (Thermo Fisher), and the DyLight650 signal was detected using an iBright 1500 (Thermo Fisher). […]

[2] = target: T1, soluble ectodomain of sortilin-6his (Homo sapiens, UniProt Q99523, V650M); test: MST binding to soluble ectodomain of sortilin-6his
T1 construct: the soluble ectodomain of sortilin-6his is measured by microscale thermophoresis (MST)

[3] = tested on: HEK293 cells expressing full length sortilin receptor; test: Cellular uptake of AlexaFluor488-anti-DNP antibody; assay type: cell-based; settings: Table 7; AlexaFluor488-anti-DNP antibody (100 nM), 3 h, DNP warhead compounds
From the text: In this example, the small molecule degraders consist of a sortilin binder linked to warhead DNP to target anti-DNP antibodies (BF001 to BF016)
Cellular uptake of AlexaFluor488-anti-DNP antibody (Thermo Fisher) was investigated in HEK293 cells expressing full length sortilin receptor in a methodology analogous to example 3.

[4] = tested on: untransfected HEK239 cells; test: Cellular uptake of target in untransfected HEK293 cells (Example 22); assay type: cell-based; settings: HEK293 cells without sortilin, 3 h, 2 nM to 2 μM, corresponding targets
HEK293/sortilin cells [5] = test: Remaining TNFalpha in conditioned media (ELISA); assay type: cell-based; settings: after 72 h, 20 nM TNFalpha; added TNFalpha (100%) subtracted remaining TNFalpha (%)
Procedure: In different experiments, HEK293/sortilin cells were incubated with compound gradient series and 20 nM TNFalpha for up to 72 h. Following incubation, remaining TNFalpha in conditioned media was evaluated using human TNF-alpha Quantikine ELISA Kit (R&D systems, DTA00D).

[6] = tested on: HEK293 cells expressing full length sortilin receptor; test: Cellular uptake of NA650 in HEK293/sortilin cells; assay type: cell-based; settings: 3 h incubation, 9.8 nM to 10 μM, NA650 100 nM
How it was run: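 HEK293 cells stably expressing full-length sortilin, seeded overnight, were exposed for 3 h at 37° C. in DMEM/10% FBS to NA650 (100 nM) with peptidic bifunctional compounds (9.8 nM to 10 μM). After dPBS washes, cell-associated DyLight650 fluorescence was read on a plate reader.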

HEK293/sortilin cells [7] = test: Depletion of NA650 from cell culture supernatant; assay type: cell-based; settings: for reduction in NA650 signal in cell culture supernatant: single addition, NA650 100 nM
Procedure: HEK293/sortilin cells were cultured in culture media containing DMEM (Lonza) further supplemented with 10% fetal bovine serum (Sigma), 1% GlutaMax Supplement (Gibco), penicillin-streptomycin (Thermo Fischer) and selection antibiotics 100 μg/mL Zeocin (Invitrogen). 35k cells/well were seeded in poly-L-lysine coated 96-well plates (Perkin Elmer) and allowed to incubate for 16-24 h in cell incubator (37° C., humidified, 5% CO2). Culture media were discarded, and the cells were washed with assay medium containing FluoroBright DMEM (Gibco) supplemented with 10% fetal bovine serum (Sigma) and 1% GlutaMax Supplement (Gibco). The media were discarded and replaced with assay media or assay medium containing 100 nM NA650 (Invitrogen). For wells evaluating the bifunctional compounds, the assay medium also contained concentrations ranging from 20 nM to 5 μM. After an incubation period of up to 72 h in the cell incubator the media were harvested and the presence of NA650 were evaluated by fluorescence intensity (FI) measurements of DyLight650 using a fluorescence plate reader (BMG Labtech Clariostar).
HEK293/sortilin cells (35k cells/96-well) were seeded in culture media (as described in Example 3) and incubated for 24 h in cell incubator. Culture media were discarded, and the cells were washed with assay medium containing FluoroBright DMEM (Gibco) and supplements as described in Example 3, before incubation in assay medium containing 100 nM NA650 and small molecule bifunctional compounds (20 nM to 5 μM). After an incubation period of up to 72 h, the media were harvested and the presence of NA650 were evaluated by FI measurements of DyLight650 using a fluorescence plate reader (BMG Labtech Clariostar).

[8] = target: streptavidin, bifunctional compound and sortilin-6his (UniProt P22629+Q99523, V650M); test: TR-FRET ternary complex formation streptavidin / bifunctional peptide / sortilin-6his; settings: Table 2; […] incubation, HTRF ratio 665/620 nm
[9] = target: Sortilin-6His (Homo sapiens (Human)) (UniProt Q99523); test: MST on labelled sortilin-6his ectodomain; KD score: +++ <25 nM, ++ 25-250 nM, + 250-2500 nM, 0 >2500 nM
Sortilin-6His [10] = target: T2, Sortilin-6His (Homo sapiens (Human), UniProt Q99523 78-755); test: TR-FRET (HTRF) ternary complex streptavidin-d2 / biotin-peptide / sortilin-6His; AUC score: + <5000, ++ >5000
T2 construct: In MST it was labelled non-covalently with RED-tris-NTA; also called soluble ectodomain of sortilin-6his; fluorescent sortilin-6his

Sortilin-6His [11] = target: T2, Sortilin-6His; test: MST, fluorescent sortilin-6his (100 nM), peptide titrated
Sortilin-6His [12] = target: T2, Sortilin-6His; test: MST on labelled sortilin-6his ectodomain; KD score: ++ <100 nM, + 100-2000 nM
Sortilin-6His [13] = target: T2, Sortilin-6His; test: MST on labelled sortilin-6his ectodomain

T1 sequence (Q99523 with tags, fused parts or gaps V650M): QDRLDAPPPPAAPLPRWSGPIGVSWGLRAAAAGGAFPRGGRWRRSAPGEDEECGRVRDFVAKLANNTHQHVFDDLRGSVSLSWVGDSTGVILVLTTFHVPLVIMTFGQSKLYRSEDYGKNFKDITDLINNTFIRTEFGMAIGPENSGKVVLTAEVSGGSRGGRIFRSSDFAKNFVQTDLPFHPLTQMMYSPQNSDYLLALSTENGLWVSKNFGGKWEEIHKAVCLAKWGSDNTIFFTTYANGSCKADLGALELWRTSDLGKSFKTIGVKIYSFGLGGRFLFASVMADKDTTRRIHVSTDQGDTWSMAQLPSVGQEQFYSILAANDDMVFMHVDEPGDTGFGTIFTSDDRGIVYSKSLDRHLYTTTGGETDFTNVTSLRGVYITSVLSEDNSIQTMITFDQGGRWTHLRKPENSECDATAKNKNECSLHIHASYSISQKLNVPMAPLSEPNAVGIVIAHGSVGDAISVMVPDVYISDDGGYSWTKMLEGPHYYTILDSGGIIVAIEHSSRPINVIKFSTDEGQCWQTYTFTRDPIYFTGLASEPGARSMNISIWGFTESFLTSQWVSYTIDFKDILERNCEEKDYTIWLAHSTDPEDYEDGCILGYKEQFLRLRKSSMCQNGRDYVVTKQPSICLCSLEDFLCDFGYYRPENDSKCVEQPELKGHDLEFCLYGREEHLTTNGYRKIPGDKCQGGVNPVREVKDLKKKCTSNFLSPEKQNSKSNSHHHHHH
T2 sequence (Q99523 78-755 V650M limits assumed): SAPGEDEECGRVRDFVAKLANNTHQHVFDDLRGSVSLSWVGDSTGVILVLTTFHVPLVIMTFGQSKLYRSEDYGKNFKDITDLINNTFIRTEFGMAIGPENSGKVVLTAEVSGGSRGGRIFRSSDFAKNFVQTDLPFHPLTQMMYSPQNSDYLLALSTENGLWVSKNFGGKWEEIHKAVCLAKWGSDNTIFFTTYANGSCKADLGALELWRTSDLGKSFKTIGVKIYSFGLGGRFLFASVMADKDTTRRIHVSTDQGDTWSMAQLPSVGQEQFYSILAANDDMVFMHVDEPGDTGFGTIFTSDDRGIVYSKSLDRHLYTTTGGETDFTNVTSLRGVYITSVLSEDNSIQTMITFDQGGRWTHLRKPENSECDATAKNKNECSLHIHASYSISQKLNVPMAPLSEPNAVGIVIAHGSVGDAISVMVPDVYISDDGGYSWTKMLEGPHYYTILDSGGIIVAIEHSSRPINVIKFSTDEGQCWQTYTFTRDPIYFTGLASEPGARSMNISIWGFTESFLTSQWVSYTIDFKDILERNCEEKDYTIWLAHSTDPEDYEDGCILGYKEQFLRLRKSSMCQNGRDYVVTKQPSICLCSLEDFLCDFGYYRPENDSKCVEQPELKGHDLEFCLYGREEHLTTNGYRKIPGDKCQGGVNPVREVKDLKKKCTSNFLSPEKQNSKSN
Chain of Sortilin-6His (Homo sapiens (Human)) (Q99523 78-755 V650M limits assumed): as above

Molecule: CC(C)(C)CCC(NC(=O)c1ccc(Oc2cccc(OCCOCCOCCOCCOCCOCCNC(=O)CCCC[C@@H]3SC[C@@H]4NC(=O)N[C@@H]43)c2)nc1)C(=O)O (stereo partly shown) [B025]
- NA650 band in lysate (HEK293/sortilin cells [1]; 24 h incubation, compound 300 nM): visible in cells incubated with B025 alone

Molecule: CC(C)(C)CC[C@H](NC(=O)c1ccc(Oc2cccc3c(C(=O)NCCCNC(=O)CCOCCOCCOCCNc4ccc([N+](=O)[O-])cc4[N+](=O)[O-])cccc23)nc1)C(=O)O [BF005, (2S)-2-[[6-[5-[3-[3-[2-[2-[2-(2,4-dinitroanilino)ethoxy]ethoxy]ethoxy]propanoylamino]propylcarbamoyl]-1-naphthyl]oxy]pyridine-3-carbonyllamino]-5,5-dimethyl-hexanoic acid]
- Kd [2]: 1 to 10 nM
- AUC score, target internalization [3]: ++ (AUC > 10.000)
- cell associated FI response to increasing degrader concentration [4]: No response

- Kd ([2]; Table 4, small molecule bifunctional compounds, MST, read-out: KD score, binding to sortilin (Kd)): < 1 nM
Molecule: C[C@@H]1CN(c2ncc(-c3ccc4c(n3)N(Cc3cccnc3C#N)C(C)(C)C4=O)cn2)CCN1C(=O)CNC(=O)CCCCCCCCCNC(=O)c1cccc(Oc2ccc(C(=O)N[C@@H](CCC(C)(C)C)C(=O)O)cn2)c1 [BF043, (2S)-2-[[6-[3-[[10-[[2-[(2R)-4-[5-[1-[(2-cyano-3-pyridyl)methyl]-2,2-dimethyl-3-oxo-pyrrolo[2,3-b]pyridin-6-yl]pyrimidin-2-yl]-2-methyl-piperazin-1-yl]-2-oxo-ethyl]amino]-10-oxo-decyl]carbamoyl]phenoxy]pyridine-3-carbonyl]amino]-5,5-dimethyl-hexanoic acid]
- Maximum clearance rates of TNFalpha from conditioned media (HEK293/sortilin cells [5]): 63.3%

Molecule: CC(C)C[C@H](NC(=O)[C@H](CC(C)C)NC(=O)[C@H](CCC(N)=O)NC(=O)[C@H](CCCNC(=N)N)NC(=O)CNC(=O)CNC(=O)[C@H](CO)NC(=O)CNC(=O)CNC(=O)CNC(=O)CNC(=O)[C@H](CO)NC(=O)CNC(=O)CNC(=O)CNC(=O)CNC(=O)[C@H](CO)NC(=O)CNC(=O)CNC(=O)CCCC[C@@H]1SC[C@@H]2NC(=O)N[C@@H]21)C(=O)O [SEQ ID NO.: 147] (Biotin-GGSGGGGSGGGGSGGRQLL-OH)
- cell associated FI signal, response to concentration series (in words) [6]: bell-shaped response
- Kd ([2]; Table 1, biotin-linker-peptide bifunctional compounds, MST, read-out: KD score, binding to sortilin (Kd)): 100 to 2000 nM
- reduction in NA650 signal in cell culture supernatant (HEK293/sortilin cells [7]; after 24 h): 16%
- reduction in NA650 signal in cell culture supernatant (HEK293/sortilin cells [7]; after 48 h): 46%
- reduction in NA650 signal in cell culture supernatant (HEK293/sortilin cells [7]; after 72 h): 61%
- degrader concentration of highest uptake of target (HEK293/sortilin cells [7]; all timepoints (24, 48, 72 h)): 312 nM
- AUC score, TR-FRET measurements of ternary complex formation [8]: ++ (AUC > 5000)
- subcellular localization of internalized NA650 (fluorescence microscopy) (HEK293/sortilin cells [1]; 2 h incubation, bifunctional molecule 300 nM, anti-LAMP1 staining): co-localizes with lysosomal marker

- KD [9]: 25 to 250 nM
Molecule: H-LQLL-OH (as printed in Table 3 for SEQ ID NO.: 30) (peptide)

- AUC of TR-FRET (HTRF ratio vs compound concentration) for ternary complex formation (Sortilin-6His [10]): > 5000 auc
- Kd (Sortilin-6His [11]): 703 nM
- KD (Sortilin-6His [12]): 100 to 2000 nM
B1: Biotin-GGSGGGGSGGGGSGGRQLL-OH (peptide)
peptide: Biotin-GGSGGGGSGGGGSGGRQLL-OH
SMILES: CC(C)C[C@H](NC(=O)[C@H](CC(C)C)NC(=O)[C@H](CCC(N)=O)NC(=O)[C@H](CCCNC(=N)N)NC(=O)CNC(=O)CNC(=O)[C@H](CO)NC(=O)CNC(=O)CNC(=O)CNC(=O)CNC(=O)[C@H](CO)NC(=O)CNC(=O)CNC(=O)CNC(=O)CNC(=O)[C@H](CO)NC(=O)CNC(=O)CNC(=O)CCCC[C@@H]1SC[C@@H]2NC(=O)N[C@@H]21)C(=O)O
notes: also called degrader

- binding result (Sortilin-6His [13]): no binding
B2: Biotin-GGSGGGGSGGGGSGG-OH (peptide)
peptide: Biotin-GGSGGGGSGGGGSGG-OH
SMILES: O=C(O)CNC(=O)CNC(=O)[C@H](CO)NC(=O)CNC(=O)CNC(=O)CNC(=O)CNC(=O)[C@H](CO)NC(=O)CNC(=O)CNC(=O)CNC(=O)CNC(=O)[C@H](CO)NC(=O)CNC(=O)CNC(=O)CCCC[C@@H]1SC[C@@H]2NC(=O)N[C@@H]21
